Results on two compounds are retold here after paper PMC8408562, “Spatially restricted substrate-binding site of cortisol-synthesizing CYP11B1 limits multiple hydroxylations and hinders aldosterone synthesis” (Current Research in Structural Biology, 2021).

The test system of test [1] is CYP11B2 Wild type. Also noted: method as in ref [1] (a number printed in a supplementary file, which may have a reference list of its own: not looked up in the article's list). The following applies: calculated from kcat values with substrate DOC, ref [1]; cited from earlier work.
Test [2] relates to CYP11B1 Wild type / CYP11B2 G288S. Also noted: method as in ref [2, 3] (a number printed in a supplementary file, which may have a reference list of its own: not looked up in the article's list). The following applies: group (ii); steroids produced from DOC, estimated against wild type controls; ref [2, 3]; cited from earlier work.
Test [3] concerns the target T1, human CYP11B1 wild type (Homo sapiens, UniProt P15538).
T1 sequence (P15538 28-503 limits assumed): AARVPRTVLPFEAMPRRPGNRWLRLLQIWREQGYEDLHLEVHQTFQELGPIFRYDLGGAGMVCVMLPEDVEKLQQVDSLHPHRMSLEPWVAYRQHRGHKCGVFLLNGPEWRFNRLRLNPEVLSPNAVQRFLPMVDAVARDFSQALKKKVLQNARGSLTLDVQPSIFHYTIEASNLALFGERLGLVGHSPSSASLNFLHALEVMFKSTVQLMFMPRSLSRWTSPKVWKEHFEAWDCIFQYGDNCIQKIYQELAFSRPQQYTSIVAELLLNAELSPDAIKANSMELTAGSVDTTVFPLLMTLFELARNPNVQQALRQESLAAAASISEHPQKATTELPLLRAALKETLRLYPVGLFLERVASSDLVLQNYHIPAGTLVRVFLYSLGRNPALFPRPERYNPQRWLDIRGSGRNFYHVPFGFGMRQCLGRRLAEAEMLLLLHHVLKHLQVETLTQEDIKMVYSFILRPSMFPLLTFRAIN
Briefly: Spectroscopic titration of ferric enzyme (difference spectra), wild type. The note with it: for Spectral shift: one column for both wild type and mutant.
Procedure: (§1) Affinities of the two enzymes for the substrates DOC or DOF and other ligands were determined by titration assays using the ferric forms.
Spectroscopic studies were carried out at room temperature using a Jasco UV–visible spectrophotometer V-530. Purified enzymes were diluted to 1.0 ​μM for the wild type and 0.8–1.2 ​μM for the mutant with the buffer consisting of 50 ​mM potassium phosphate (pH 7.4), 150 ​mM NaCl, 20% (v/v) glycerol, and 0.05% (v/v) Tween 20. […] Dissociation constants for steroids and ligands were determined from spectral changes caused by titration with increasing concentrations of them. Data were analyzed using non-linear regression (Prism 8, GraphPad Software) to calculate Kd values. […] The dissociation constants were calculated from the apparent values by using the Kd values for DOC as the inhibitory constants. […] The steroids and ligands used for spectroscopic analyses were dissolved in dimethyl sulfoxide.

Test [4] deals with T2, human CYP11B1 mutant (W49R, L50N, L53N, W56R, L244N, W247N) (Homo sapiens, UniProt P15538, L244N/L50N/L53N/W247N/W49R/W56R).
T2 sequence (P15538 28-503 W49R/L50N/L53N/W56R/L244N/W247N limits assumed): T1 sequence (P15538 28-503 limits assumed) with W22R, L23N, L26N, W29R, L217N, W220N
Briefly: Steady-state kinetics in reconstituted system (adrenodoxin reductase, adrenodoxin, NADPH), LC-MS/MS, mutant. The class given is biochemical. The following applies: for Production of 18-hydroxy cortisol / 18-hydroxy corticosterone (11β,18-dihydroxylation): from DOF and DOC, respectively.

Test [5] concerns CYP11B1 S288G / CYP11B2 R181W/V386A. Details: method as in ref [2, 3] (a number printed in a supplementary file, which may have a reference list of its own: not looked up in the article's list). The following applies: group (iii); steroids produced from DOC, estimated against wild type controls; ref [2, 3]; cited from earlier work.
The target of test [6] is T2, human CYP11B1 mutant (W49R, L50N, L53N, W56R, L244N, W247N). Briefly: Spectroscopic titration of ferric enzyme (difference spectra), mutant. The note with it: direct titration of ferric form, mean ± SE, n=3.
Procedure: as §1
Two forms, a wild type and a mutant, of recombinant human CYP11B1 were expressed as 486-amino acid residue polypeptide (Fig. S2).
Spectroscopic studies were carried out at room temperature using a Jasco UV–visible spectrophotometer V-530. Purified enzymes were diluted to 1.0 ​μM for the wild type and 0.8–1.2 ​μM for the mutant with the buffer consisting of 50 ​mM potassium phosphate (pH 7.4), 150 ​mM NaCl, 20% (v/v) glycerol, and 0.05% (v/v) Tween 20. Substrate DOC (Sigma) at 400 ​μM, sodium dithionite, and CO were added sequentially, and absolute spectra were recorded after each step. […] The data obtained with 5 ​mM Cymal-5 (Anatrace) in place of the substrate were also included in Fig. S4. Dissociation constants for steroids and ligands were determined from spectral changes caused by titration with increasing concentrations of them. Data were analyzed using non-linear regression (Prism 8, GraphPad Software) to calculate Kd values. […] The dissociation constants were calculated from the apparent values by using the Kd values for DOC as the inhibitory constants. […] The steroids and ligands used for spectroscopic analyses were dissolved in dimethyl sulfoxide.
Test [7] concerns CYP11B1 S288G/V320A / CYP11B2 Wild type. Also noted: method as in ref [2, 3] (a number printed in a supplementary file, which may have a reference list of its own: not looked up in the article's list). The note with it: group (iv); steroids produced from DOC, estimated against wild type controls; ref [2, 3]; cited from earlier work.
Test [8] addresses T1, human CYP11B1 wild type. Briefly: Steady-state kinetics in reconstituted system (adrenodoxin reductase, adrenodoxin, NADPH), LC-MS/MS, wild type. Format: biochemical.
Setting [9] is: CYP11B1 mutant, calculated from kcat values with substrate DOC.
Setting [10] is: CYP11B1 wild type (this study), calculated from kcat values with substrate DOC.

Changes are numbered by the printed parent chain. Where “and” joins values, the source holds several entries; their conditions need not be identical. Equal entries are not always repeated. Where two headings read alike, the source gives them in different places.

For the compound `C[C@]12CC[C@H]3[C@@H](CCC4=CC(=O)CC[C@@]43C)[C@@H]1CC[C@@H]2C(=O)CO` [DOC, 11-deoxycorticosterone], in test [1], the “Relative activity (molar product ratio), 11b,18-diOHase” value is recorded as 2.7%; the “Relative activity (molar product ratio), 11b,18-diOHase,18-oxidase” value is reported as 0.5%; the “Relative activity (molar product ratio), 11b-OHase” value is 92.6%; the “Relative activity (molar product ratio), 18-OHase” value was 4.2%. In test [2], the “Activity class, 11b,18-diOHase” value was “+ (Percentages 0, >0 and ≤1, >1 and ≤10, and >10 are indicated by (-), (+), (++), and (+++), respectively)”; the “Activity class, 11b,18-diOHase,18-oxidase” value is “- (Percentages 0, >0 and ≤1, >1 and ≤10, and >10 are indicated by (-), (+), (++), and (+++), respectively)”; the “Activity class, 11b-OHase” value is “+++ (Percentages 0, >0 and ≤1, >1 and ≤10, and >10 are indicated by (-), (+), (++), and (+++), respectively)”. Further, in test [3], binding was characterised by a dissociation constant (Kd) of 15.1 µM and the Spectral shift result is listed as “Type I”. For the same compound, in test [4], the “kcat, 11β,18-diOHase” value was found to be 0 s⁻¹; the “kcat, 11β,18-diOHase,18-oxidase” value worked out at 0 s⁻¹; the “kcat, 11β-hydroxylation” value came to 2.212 s⁻¹. Also, in test [4] (setting [9]), the “Relative activity (molar product ratio), 11b,18-diOHase” value is recorded as 0%; the “Relative activity (molar product ratio), 11b,18-diOHase,18-oxidase” value is given as 0%; the “Relative activity (molar product ratio), 11b-OHase” value was 95.8%; the “Relative activity (molar product ratio), 18-OHase” value was 4.2%. Besides, the Production of aldosterone entry in test [4] (Mutant, from DOC) was “not produced”. For the same compound, the “Production of 18-hydroxy cortisol / 18-hydroxy corticosterone (11β,18-dihydroxylation)” value in test [4] (Mutant) is “did not produce”. In addition, in test [5], the “Activity class, 11b,18-diOHase” value is “++ (Percentages 0, >0 and ≤1, >1 and ≤10, and >10 are indicated by (-), (+), (++), and (+++), respectively)”; the “Activity class, 11b,18-diOHase,18-oxidase” value is “- (Percentages 0, >0 and ≤1, >1 and ≤10, and >10 are indicated by (-), (+), (++), and (+++), respectively)”; the “Activity class, 11b-OHase” value was “+++ (Percentages 0, >0 and ≤1, >1 and ≤10, and >10 are indicated by (-), (+), (++), and (+++), respectively)”. In addition, in test [6], the Kd was 3.8 µM and 3.81 µM. Besides, in test [7], the “Activity class, 11b,18-diOHase” value is “++ (Percentages 0, >0 and ≤1, >1 and ≤10, and >10 are indicated by (-), (+), (++), and (+++), respectively)”; the “Activity class, 11b,18-diOHase,18-oxidase” value is “+ (Percentages 0, >0 and ≤1, >1 and ≤10, and >10 are indicated by (-), (+), (++), and (+++), respectively)”; the “Activity class, 11b-OHase” value was “+++ (Percentages 0, >0 and ≤1, >1 and ≤10, and >10 are indicated by (-), (+), (++), and (+++), respectively)”. Besides, in test [8], the “kcat, 11β,18-diOHase,18-oxidase” value was 0 s⁻¹; the “kcat, 11β,18-dihydroxylation” value was 0.0108 s⁻¹; the “kcat, 11β-hydroxylation” value amounted to 2.683 s⁻¹; the “kcat, 18-hydroxylation” value came to 0.132 s⁻¹. Moreover, in test [8] (setting [10]), the “Relative activity (molar product ratio), 11b,18-diOHase” value is reported as 0.4%; the “Relative activity (molar product ratio), 11b,18-diOHase,18-oxidase” value was 0%; the “Relative activity (molar product ratio), 11b-OHase” value is given as 94.9%; the “Relative activity (molar product ratio), 18-OHase” value is listed as 4.7%. Further, the Production of aldosterone entry in test [8] (Wild type, from DOC) is reported as “not produced”.

Regarding `C[C@]12CCC(=O)C=C1CC[C@@H]1[C@@H]2CC[C@@]2(C)[C@H]1CC[C@]2(O)C(=O)CO` [DOF, 11-deoxycortisol], the Kd in test [3] is 21.2 µM; in test [6], 3.3 µM and 3.31 µM. The Spectral shift entry in test [3] is on record as “Type I”. For the same compound, the “kcat, 11β-hydroxylation” value in test [4] (Mutant, DOF to cortisol, DOC to corticosterone) stood at 1.51 s⁻¹; in test [8] (Wild type, DOF to cortisol, DOC to corticosterone), 2.157 s⁻¹. The “Production of 18-hydroxy cortisol / 18-hydroxy corticosterone (11β,18-dihydroxylation)” value in test [4] (Mutant) is reported as “did not produce”. Also, the “kcat, 11β,18-diOHase” value in test [4] (Mutant, product 18OH-F (from DOF) or 18OH-B (from DOC)) was 0 s⁻¹.
